The structures appear in SMILES notation.

In this test the target is T1, human Npt2a (Homo sapiens, UniProt Q06495).
T1 construct: expressed in transfected cells
T1 sequence (Q06495 1-639): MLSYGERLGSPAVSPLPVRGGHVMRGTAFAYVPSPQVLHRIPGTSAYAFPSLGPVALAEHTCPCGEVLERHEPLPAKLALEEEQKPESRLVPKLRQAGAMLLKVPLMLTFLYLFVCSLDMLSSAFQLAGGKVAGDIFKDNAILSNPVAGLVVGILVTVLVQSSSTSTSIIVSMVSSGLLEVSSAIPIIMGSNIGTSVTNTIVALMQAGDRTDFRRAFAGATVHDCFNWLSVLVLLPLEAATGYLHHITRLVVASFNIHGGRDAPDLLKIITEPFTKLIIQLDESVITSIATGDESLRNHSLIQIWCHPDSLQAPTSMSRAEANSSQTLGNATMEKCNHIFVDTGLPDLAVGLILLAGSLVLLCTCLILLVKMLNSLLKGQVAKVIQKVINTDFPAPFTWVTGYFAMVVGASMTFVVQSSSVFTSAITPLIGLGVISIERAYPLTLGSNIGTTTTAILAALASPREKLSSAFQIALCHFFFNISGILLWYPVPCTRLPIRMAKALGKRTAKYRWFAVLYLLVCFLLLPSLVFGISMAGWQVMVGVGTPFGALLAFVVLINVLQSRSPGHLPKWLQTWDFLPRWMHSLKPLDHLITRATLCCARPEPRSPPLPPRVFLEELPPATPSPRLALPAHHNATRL
Description: Npt2a activity cell based assay, membrane potential dye, CHO T-REx hNpt2a cells. Particulars: doxycycline-induced, depolarization by sodium phosphate influx, average or median values if tested more than once. Put shortly: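 Cells were doxycycline-induced CHO T-REx hNpt2a, dye-loaded and pretreated 5 min at RT with 1 nM–50 μM compound in Na-free pH 7.4 buffer. IC50 was fit to the post/pre-trigger fluorescence ratio.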
In the case of `COc1c(-c2ccc(C#N)cc2)nn(CC2CC2)c1Nc1cc(-n2nc(C)cc2C)ncn1` [Example 316, 4-[1-(cyclopropylmethyl)-5-{[6-(3,5-dimethyl-1H-pyrazol-1-yl)pyrimidin-4-yl]amino}-4-methoxy-1H-pyrazol-3-yl]benzonitrile], the IC50 worked out at 81 nM.

For the molecule `COc1c(-c2ccc(F)cc2)nn(CC2CC2)c1Nc1cc(-n2nc(C)c(C(C)=O)c2C)ncn1` [Example 317, 1-[1-(6-{[1-(cyclopropylmethyl)-3-(4-fluorophenyl)-4-methoxy-1H-pyrazol-5-yl]amino}pyrimidin-4-yl)-3,5-dimethyl-1H-pyrazol-4-yl]ethanone], the concentration for half-maximal inhibition (IC50) stood at 450 nM. Compared with the last molecule, the IC50 is about 5.6-fold higher.

As to `COc1c(-c2ccc(C#N)cc2)nn(CC2CC2)c1Nc1cc(-n2nc(C)c(C(C)=O)c2C)ncn1` [Example 318, 4-[5-{[6-(4-acetyl-3,5-dimethyl-1H-pyrazol-1-yl)pyrimidin-4-yl]amino}-1-(cyclopropylmethyl)-4-methoxy-1H-pyrazol-3-yl]benzonitrile], half-maximal inhibition (IC50) required 790 nM.

Regarding `CCOC(=O)c1c(C)nn(-c2cc(Nc3c(OC)c(-c4ccc(F)cc4)nn3CC3CC3)ncn2)c1C` [Example 319, ethyl 1-(6-{[1-(cyclopropylmethyl)-3-(4-fluorophenyl)-4-methoxy-1H-pyrazol-5-yl]amino}pyrimidin-4-yl)-3,5-dimethyl-1H-pyrazole-4-carboxylate], the half-inhibitory concentration (IC50) was found to be 82 nM.

Take `CCOC(=O)c1c(C)nn(-c2cc(Nc3c(OC)c(-c4ccc(C#N)cc4)nn3CC3CC3)ncn2)c1C` [Example 320, ethyl 1-(6-{[3-(4-cyanophenyl)-1-(cyclopropylmethyl)-4-methoxy-1H-pyrazol-5-yl]amino}pyrimidin-4-yl)-3,5-dimethyl-1H-pyrazole-4-carboxylate]: the 50% inhibitory concentration (IC50) was determined as 71 nM. This IC50 and that of the molecule before are within 1.5-fold of each other.

`CC(=O)c1c(C)nn(-c2cc(Nc3c(C)c(-c4ccc(C#N)cc4)nn3CC3CC3)ncn2)c1C` [Example 321, 4-[5-{[6-(4-acetyl-3,5-dimethyl-1H-pyrazol-1-yl)pyrimidin-4-yl]amino}-1-(cyclopropylmethyl)-4-methyl-1H-pyrazol-3-yl]benzonitrile]: 16 nM corresponded to half-maximal inhibition (IC50). This IC50 is about 4.4-fold lower than that of the molecule before.

On to `Cc1cc(C)n(-c2cc(Nc3c(C)c(-c4ccc(C5CN(C(=O)OC(C)(C)C)C5)cc4)nn3C)ncn2)n1` [Example 323, tert-butyl 3-[4-(5-{[6-(3,5-dimethyl-1H-pyrazol-1-yl)pyrimidin-4-yl]amino}-1,4-dimethyl-1H-pyrazol-3-yl)phenyl]azetidine-1-carboxylate], for which half-maximal inhibition (IC50) required 660 nM. Against the preceding molecule, the IC50 is about 41-fold higher.

Take `Cc1cc(C)n(-c2cc(Nc3c(C)c(-c4ccc(C5CC5)cc4)nn3C)ncn2)n1` [Example 324, N-[3-(4-cyclopropylphenyl)-1,4-dimethyl-1H-pyrazol-5-yl]-6-(3,5-dimethyl-1H-pyrazol-1-yl)pyrimidin-4-amine]: the half-maximal inhibitory concentration (IC50) came to 270 nM. Compared with the last molecule, the IC50 is about 2.4-fold lower.

Turning to `CC(=O)c1c(C)nn(-c2cc(Nc3c(C)c(-c4ccc(C#N)cc4)nn3C)ncn2)c1C` [Example 337, 4-(5-{[6-(4-acetyl-3,5-dimethyl-1H-pyrazol-1-yl)pyrimidin-4-yl]amino}-1,4-dimethyl-1H-pyrazol-3-yl)benzonitrile], the midpoint of inhibition, the IC50, lay at 66 nM.

As to `Cc1cc(C(F)F)n(-c2cc(Nc3nn(C)c(-c4ccc(F)cc4)c3Cl)ncn2)n1` [Example 346, N-[4-chloro-5-(4-fluorophenyl)-1-methyl-1H-pyrazol-3-yl]-6-[5-(difluoromethyl)-3-methyl-1H-pyrazol-1-yl]pyrimidin-4-amine], the IC50 was determined as 4 nM.

In turn, `Cc1nn(-c2cc(Nc3c(C)c(-c4ccc(Cl)cc4)nn3CC3CC3)ncn2)c(C)c1C(C)(C)O` [Example 347, 2-[1-(6-{[3-(4-chlorophenyl)-1-(cyclopropylmethyl)-4-methyl-1H-pyrazol-5-yl]amino}pyrimidin-4-yl)-3,5-dimethyl-1H-pyrazol-4-yl]propan-2-ol] had an IC50 of 23 nM.

The molecule `Cc1nn(-c2cc(Nc3nn(C)c(-c4ccc(F)cc4)c3C)ncn2)c(C)c1C#N` [Example 348, 1-(6-{[5-(4-fluorophenyl)-1,4-dimethyl-1H-pyrazol-3-yl]amino}pyrimidin-4-yl)-3,5-dimethyl-1H-pyrazole-4-carbonitrile] returned an IC50 of 15 nM.

Consider `CCc1c(-c2ccc(F)cc2)nn(CC2CC2)c1Nc1cc(-n2nc(C)c(C#N)c2C)ncn1` [Example 349, 1-(6-{[1-(cyclopropylmethyl)-4-ethyl-3-(4-fluorophenyl)-1H-pyrazol-5-yl]amino}pyrimidin-4-yl)-3,5-dimethyl-1H-pyrazole-4-carbonitrile], for which the half-maximal inhibitory concentration (IC50) worked out at 49 nM.

`Cc1cc(C)n(-c2cc(Nc3c(C)c(-c4ccncc4)nn3CC3CC3)ncn2)n1` [Example 350, N-[1-(cyclopropylmethyl)-4-methyl-3-(pyridin-4-yl)-1H-pyrazol-5-yl]-6-(3,5-dimethyl-1H-pyrazol-1-yl)pyrimidin-4-amine] yielded a concentration for half-maximal inhibition (IC50) of 1300 nM.

`Cc1nn(-c2cc(Nc3c(C)c(-c4ccncc4)nn3CC3CC3)ncn2)c(C)c1Cl` [Example 351, 6-(4-chloro-3,5-dimethyl-1H-pyrazol-1-yl)-N-[1-(cyclopropylmethyl)-4-methyl-3-(pyridin-4-yl)-1H-pyrazol-5-yl]pyrimidin-4-amine] yielded an IC50 of 65 nM. This IC50 is about 20-fold lower than that of the molecule before.

In turn, `Cc1nn(-c2cc(Nc3c(C)c(-c4ccc(C#N)cc4)nn3CC3CC3)ncn2)c(C)c1C#N` [Example 352, 1-(6-{[3-(4-cyanophenyl)-1-(cyclopropylmethyl)-4-methyl-1H-pyrazol-5-yl]amino}pyrimidin-4-yl)-3,5-dimethyl-1H-pyrazole-4-carbonitrile] had an IC50 of 25 nM. Against the preceding molecule, the IC50 is about 2.6-fold lower.

In turn, `CCOC(=O)c1c(C)nn(-c2cc(Nc3nn(C)c(-c4ccc(Cl)cc4)c3C)ncn2)c1C` [Example 353, ethyl 1-(6-{[5-(4-chlorophenyl)-1,4-dimethyl-1H-pyrazol-3-yl]amino}pyrimidin-4-yl)-3,5-dimethyl-1H-pyrazole-4-carboxylate] yielded an IC50 of 5 nM.

In turn, `Cc1cc(C)n(-c2cc(Nc3c(C)c(-c4ccc(Cl)cc4)nn3C)ncn2)n1` [Example 354, N-[3-(4-chlorophenyl)-1,4-dimethyl-1H-pyrazol-5-yl]-6-(3,5-dimethyl-1H-pyrazol-1-yl)pyrimidin-4-amine] had a concentration for half-maximal inhibition (IC50) of 135 nM.

Molecule `Cc1cc(C)n(-c2cc(Nc3nn(C)c(-c4ccc(Cl)cc4)c3C)ncn2)n1` [Example 355, N-[5-(4-chlorophenyl)-1,4-dimethyl-1H-pyrazol-3-yl]-6-(3,5-dimethyl-1H-pyrazol-1-yl)pyrimidin-4-amine] registered an IC50 of 20 nM.

`CCOC(=O)c1c(C)nn(-c2cc(Nc3nn(C)c(-c4ccc(F)cc4)c3Cl)ncn2)c1C` [Example 356, ethyl 1-(6-{[4-chloro-5-(4-fluorophenyl)-1-methyl-1H-pyrazol-3-yl]amino}pyrimidin-4-yl)-3,5-dimethyl-1H-pyrazole-4-carboxylate] yielded a half-maximal inhibitory concentration (IC50) of 2 nM.

`Cc1nn(-c2cc(Nc3nn(C)c(-c4ccc(F)cc4)c3Cl)ncn2)c(C)c1C1(O)CC1` [Example 357, 1-[1-(6-{[4-chloro-5-(4-fluorophenyl)-1-methyl-1H-pyrazol-3-yl]amino}pyrimidin-4-yl)-3,5-dimethyl-1H-pyrazol-4-yl]cyclopropanol] came in with an IC50 of 32 nM.

`CCOC(=O)c1c(C)nn(-c2cc(Nc3c(C)c(-c4ccc(OC(F)(F)F)cc4)nn3C)ncn2)c1C` [Example 361, ethyl 1-[6-({1,4-dimethyl-3-[4-(trifluoromethoxy)phenyl]-1H-pyrazol-5-yl}amino)pyrimidin-4-yl]-3,5-dimethyl-1H-pyrazole-4-carboxylate] showed an IC50 of 31 nM.

These data come from US11208400B2, “Substituted 6-(1H-pyrazol-1-yl)pyrimidin-4-amine derivatives and uses thereof” (Bayer Aktiengesellschaft, priority 2016, dated 2021).
